# According to patent publication US6770596B1, “Fused tricyclic compounds, process for their preparation, and herbicidal compositions containing them” (Ishihara Sangyo Kaisha Ltd., priority 2002, dated 2004):
# What was measured:
# Type in all cases: in vivo
# [1] = system: ivyleaf morningglory (Ipomoea hederacea, IPH); test: Post-emerge test, ivyleaf morningglory; settings: 250 g ai/ha, 14 days after application, rating scale 0-100 (0 no damage, 100 complete death)
# Method in brief: (§1)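 Scores use a 0-100 visual scale, where 100 is complete plant death, rated 14 days post-treatment. Foliar application at 8-1000 g ai/ha, acetone solution at 187 l/ha with 0.25% v/v non-ionic surfactant. Plants grown 8-21 days, typically 2-3 leaf stage.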
# [2] = system: green foxtail (Setaria viridis, SEV); test: Post-emerge test, green foxtail; settings: 250 g ai/ha, 14 days after application, rating scale 0-100 (0 no damage, 100 complete death)
# Method in brief: as §1
# [3] = system: velvetleaf (Abutilon theophrasti, ABT); test: Post-emerge test, velvetleaf; settings: 250 g ai/ha, 14 days after application, rating scale 0-100 (0 no damage, 100 complete death)
# Method in brief: as §1
# [4] = system: johnsongrass (Sorghum halepense, SOH); test: Post-emerge test, johnsongrass; settings: 250 g ai/ha, 14 days after application, rating scale 0-100 (0 no damage, 100 complete death)
# Method in brief: as §1
# [5] = system: large crabgrass (Digitaria sanguinalis, DIS); test: Pre-emerge test, large crabgrass; settings: 250 g ai/ha, 14 days after application, rating scale 0-100 (0 no damage, 100 complete death)
# Method in brief: (§2)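 Greenhouse pre-emergence screen: track-sprayer application of compounds in acetone at 187 l/ha, rates 8 g ai/ha to 1000 g ai/ha, one day after planting in sandy loam pots. Damage scored at 14 days, 0 (none) to 100 (all plants dead).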
# [6] = system: cocklebur (Xanthium strumariunt, XAS); test: Post-emerge test, cocklebur; settings: 250 g ai/ha, 14 days after application, rating scale 0-100 (0 no damage, 100 complete death)
# Method in brief: as §1
# [7] = system: soybean (Glycine max L., var. Pella 86, SOY); test: Pre-emerge test, crop damage soybean
# Method in brief: (§3)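 Seeds planted 1 day pre-application in sandy loam soil mix; acetone solutions sprayed at 8 to 1000 g ai/ha (187 l/ha, flat fan nozzle, track sprayer). 14 d later, visual damage scored on a 0–100 scale.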
# [8] = system: wheat (Triticum aestivum); test: Pre-emerge test, crop damage wheat
# Method in brief: as §3
# [9] = system: velvetleaf (Abutilon theophrasti, ABT); test: Pre-emerge test, velvetleaf; settings: 250 g ai/ha, 14 days after application, rating scale 0-100 (0 no damage, 100 complete death)
# Method in brief: as §2
# [10] = system: sicklepod (Cassia obtusifolia, CAO); test: Post-emerge test, sicklepod; settings: 250 g ai/ha, 14 days after application, rating scale 0-100 (0 no damage, 100 complete death)
# Method in brief: as §1
# [11] = system: johnsongrass (Sorghum halepense, SOH); test: Pre-emerge test, johnsongrass; settings: 250 g ai/ha, 14 days after application, rating scale 0-100 (0 no damage, 100 complete death)
# Method in brief: as §2
# [12] = system: lambsquarters (Chenopodium album, CHA); test: Pre-emerge test, lambsquarters; settings: 250 g ai/ha, 14 days after application, rating scale 0-100 (0 no damage, 100 complete death)
# Method in brief: as §2
# [13] = system: upland rice (Oryza sp., var.Tebonnet, RICE); test: Pre-emerge test, crop damage upland rice
# Method in brief: as §3
# [14] = system: barnyardgrass (Echinachloa crus-galli, ECC); test: Pre-emerge test, barnyardgrass; settings: 250 g ai/ha, 14 days after application, rating scale 0-100 (0 no damage, 100 complete death)
# Method in brief: as §2
# [15] = system: field corn (Zea mays L., var. Dekalb 535, CORN); test: Post-emerge test, crop damage field corn
# Method in brief: as §1
# [16] = system: common ragweed (Ambrosia artemisiifolia L., AML); test: Pre-emerge test, common ragweed; settings: 250 g ai/ha, 14 days after application, rating scale 0-100 (0 no damage, 100 complete death)
# Method in brief: as §2
# [17] = system: common ragweed (Ambrosia artemisiifolia L., AML); test: Post-emerge test, common ragweed; settings: 250 g ai/ha, 14 days after application, rating scale 0-100 (0 no damage, 100 complete death)
# Method in brief: as §1
# [18] = system: sicklepod (Cassia obtusifolia, CAO); test: Pre-emerge test, sicklepod; settings: 250 g ai/ha, 14 days after application, rating scale 0-100 (0 no damage, 100 complete death)
# Method in brief: as §2
# [19] = system: upland rice (Oryza sp., var.Tebonnet, RICE); test: Post-emerge test, crop damage upland rice
# Method in brief: as §1
# [20] = system: redroot pigweed (Amaranthus retroflexus, AMR); test: Post-emerge test, redroot pigweed; settings: 250 g ai/ha, 14 days after application, rating scale 0-100 (0 no damage, 100 complete death)
# Method in brief: as §1
# [21] = system: field corn (Zea mays L., var. Dekalb 535, CORN); test: Pre-emerge test, crop damage field corn
# Method in brief: as §3
# [22] = system: ivyleaf morningglory (Ipomoea hederacea, IPH); test: Pre-emerge test, ivyleaf morningglory; settings: 250 g ai/ha, 14 days after application, rating scale 0-100 (0 no damage, 100 complete death)
# Method in brief: as §2
# [23] = system: cocklebur (Xanthium strumariunt, XAS); test: Pre-emerge test, cocklebur; settings: 250 g ai/ha, 14 days after application, rating scale 0-100 (0 no damage, 100 complete death)
# Method in brief: as §2
# [24] = system: barnyardgrass (Echinachloa crus-galli, ECC); test: Post-emerge test, barnyardgrass; settings: 250 g ai/ha, 14 days after application, rating scale 0-100 (0 no damage, 100 complete death)
# Method in brief: as §1
# [25] = system: wheat (Triticum aestivum); test: Post-emerge test, crop damage wheat
# Method in brief: as §1
# [26] = system: redroot pigweed (Amaranthus retroflexus, AMR); test: Pre-emerge test, redroot pigweed; settings: 250 g ai/ha, 14 days after application, rating scale 0-100 (0 no damage, 100 complete death)
# Method in brief: as §2
# [27] = system: lambsquarters (Chenopodium album, CHA); test: Post-emerge test, lambsquarters; settings: 250 g ai/ha, 14 days after application, rating scale 0-100 (0 no damage, 100 complete death)
# Method in brief: as §1
# [28] = system: large crabgrass (Digitaria sanguinalis, DIS); test: Post-emerge test, large crabgrass; settings: 250 g ai/ha, 14 days after application, rating scale 0-100 (0 no damage, 100 complete death)
# Method in brief: as §1
# [29] = system: green foxtail (Setaria viridis, SEV); test: Pre-emerge test, green foxtail; settings: 250 g ai/ha, 14 days after application, rating scale 0-100 (0 no damage, 100 complete death)
# Method in brief: as §2
# [30] = system: soybean (Glycine max L., var. Pella 86, SOY); test: Post-emerge test, crop damage soybean
# Method in brief: as §1
# [31] = pre-emerge, 250 g ai/ha, 14 days after application, rating scale 0-100 (0 no damage, 100 complete death)
# [32] = post-emerge, 250 g ai/ha, 14 days after application, rating scale 0-100 (0 no damage, 100 complete death)
# [33] = var. Pella 86, Glycine max (soybean), in vivo, 14 days
# [34] = Triticum aestivum (wheat), in vivo, 14 days
# [35] = var. Tebonnet, Oryza sp. (upland rice), in vivo, 14 days
# [36] = var. Dekalb 535, Zea mays (field corn), in vivo, 14 days
SMILES,Post-emerge Herbicidal Activity IPH (phytotoxicity rating) [1],Post-emerge Herbicidal Activity SEV (phytotoxicity rating) [2],Post-emerge Herbicidal Activity ABT (phytotoxicity rating) [3],Post-emerge Herbicidal Activity SOH (phytotoxicity rating) [4],Pre-emerge Herbicidal Activity DIS (phytotoxicity rating) [5],Post-emerge Herbicidal Activity XAS (phytotoxicity rating) [6],Pre-emerge Herbicidal Activity ABT (phytotoxicity rating) [9],Post-emerge Herbicidal Activity CAO (phytotoxicity rating) [10],Pre-emerge Herbicidal Activity SOH (phytotoxicity rating) [11],Pre-emerge Herbicidal Activity CHA (phytotoxicity rating) [12],Pre-emerge Herbicidal Activity ECC (phytotoxicity rating) [14],Pre-emerge Herbicidal Activity AML (phytotoxicity rating) [16],Post-emerge Herbicidal Activity AML (phytotoxicity rating) [17],Pre-emerge Herbicidal Activity CAO (phytotoxicity rating) [18],Post-emerge Herbicidal Activity AMR (phytotoxicity rating) [20],Pre-emerge Herbicidal Activity IPH (phytotoxicity rating) [22],Pre-emerge Herbicidal Activity XAS (phytotoxicity rating) [23],Post-emerge Herbicidal Activity ECC (phytotoxicity rating) [24],Pre-emerge Herbicidal Activity AMR (phytotoxicity rating) [26],Post-emerge Herbicidal Activity CHA (phytotoxicity rating) [27],also measured
CC1Oc2cc(F)c(-c3nn(C)c(C(F)(F)F)c3Cl)c3c2N(C1=O)C(C)C(=O)N3 (mixture of isomers) [1-50],100,70,100,55,99,100,100,75,100,100,99,100,70,99,100,90,75,99,100,100,"Pre-emerge crop damage SOY (phytotoxicity rating) [7, 31]: 60; Pre-emerge crop damage WHEAT (phytotoxicity rating) [8, 31]: 25; Pre-emerge crop damage RICE (phytotoxicity rating) [13, 31]: 50; Post-emerge crop damage CORN (phytotoxicity rating) [15, 32]: 20; Post-emerge crop damage RICE (phytotoxicity rating) [19, 32]: 65; Pre-emerge crop damage CORN (phytotoxicity rating) [21, 31]: 85; Post-emerge crop damage WHEAT (phytotoxicity rating) [25, 32]: 35; Post-emerge Herbicidal Activity DIS (phytotoxicity rating) [28]: 70; Pre-emerge Herbicidal Activity SEV (phytotoxicity rating) [29]: 100; Post-emerge crop damage SOY (phytotoxicity rating) [30, 32]: 75"
CCC1C(=O)Nc2c(-c3ncc(C(F)(F)F)cc3Cl)c(F)cc3c2N1C(=O)CO3 (stereo not drawn) [1-66],100,98,100,75,100,100,100,75,100,100,100,100,80,98,100,100,50,100,100,100,"Pre-emerge crop damage SOY (phytotoxicity rating) [7, 31]: 35; Pre-emerge crop damage WHEAT (phytotoxicity rating) [8, 31]: 50; Pre-emerge crop damage RICE (phytotoxicity rating) [13, 31]: 85; Post-emerge crop damage CORN (phytotoxicity rating) [15, 32]: 10; Post-emerge crop damage RICE (phytotoxicity rating) [19, 32]: 100; Pre-emerge crop damage CORN (phytotoxicity rating) [21, 31]: 95; Post-emerge crop damage WHEAT (phytotoxicity rating) [25, 32]: 30; Post-emerge Herbicidal Activity DIS (phytotoxicity rating) [28]: 95; Pre-emerge Herbicidal Activity SEV (phytotoxicity rating) [29]: 100; Post-emerge crop damage SOY (phytotoxicity rating) [30, 32]: 100"
Cn1nc(-c2c(F)cc3c4c2NC(=O)C(c2ccccc2)N4C(=O)CO3)c(Cl)c1C(F)(F)F (stereo not drawn) [1-21],75,50,75,0,99,80,100,5,85,100,75,98,75,60,95,95,40,25,100,99,"Pre-emerge crop damage SOY (phytotoxicity rating) [7, 31]: 35; Pre-emerge crop damage WHEAT (phytotoxicity rating) [8, 31]: 20; Pre-emerge crop damage RICE (phytotoxicity rating) [13, 31]: 0; Post-emerge crop damage CORN (phytotoxicity rating) [15, 32]: 10; Post-emerge crop damage RICE (phytotoxicity rating) [19, 32]: 55; Pre-emerge crop damage CORN (phytotoxicity rating) [21, 31]: 0; Post-emerge crop damage WHEAT (phytotoxicity rating) [25, 32]: 45; Post-emerge Herbicidal Activity DIS (phytotoxicity rating) [28]: 0; Pre-emerge Herbicidal Activity SEV (phytotoxicity rating) [29]: 98; Post-emerge crop damage SOY (phytotoxicity rating) [30, 32]: 25"
"C[C@H]1Oc2cc(F)c(-c3nn(C)c(C(F)(F)F)c3Cl)c3c2N(CC(=O)N3)C1=O [1-48, 8-[4-Chloro-1-methyl-5-(trifluoromethyl)-1H-pyrazol-3-yl]-9-fluoro-2-R-methyl-5H-pyrazino[1,2,3-de]-1,4-benzoxazine-3,6(2H, 7H)-dione]",100,98,100,30,100,100,100,65,100,100,100,99,80,100,100,100,60,95,100,100,"Pre-emerge crop damage SOY (phytotoxicity rating) [7, 33]: 40; Pre-emerge crop damage WHEAT (phytotoxicity rating) [8, 34]: 25; Pre-emerge crop damage RICE (phytotoxicity rating) [13, 35]: 55; Post-emerge crop damage CORN (phytotoxicity rating) [15, 36]: 10; Post-emerge crop damage RICE (phytotoxicity rating) [19, 35]: 60; Pre-emerge crop damage CORN (phytotoxicity rating) [21, 36]: 70; Post-emerge crop damage WHEAT (phytotoxicity rating) [25, 34]: 0; Post-emerge Herbicidal Activity DIS (phytotoxicity rating) [28]: 50; Pre-emerge Herbicidal Activity SEV (phytotoxicity rating) [29]: 100; Post-emerge crop damage SOY (phytotoxicity rating) [30, 33]: 65"
